The source of these data is ChEMBL document CHEMBL3507680, “University of Dundee, Gates Library screen for HepG2 cell viability”.

The nature of the data set: Human HepG2 cell viability assay in 384 well format. The class given is toxicity, cell-based. Set-up: dose 125 nL, time 70.5 hour; cytotoxicity at 70.5 h: concentration not given beside the values. Conditions: HepG2 cells, read-out: Inhibition.
As for `COCCN1CC[C@@H]2OC[C@H](C(=O)N(C)Cc3ccccn3)C[C@@H]2C1`, the cytotoxicity at 70.5 h is -3.83%. Consider `COC1COC2(CCN(C(=O)c3ccccc3F)CC2)C1` (stereo not given), for which the cytotoxicity at 70.5 h was -4.84%. For the compound `Cn1c2c(ccc1=O)CC(NC(=O)c1ccsc1)CC2` (stereo not given), the cytotoxicity at 70.5 h was -2.29%. As to `COc1cccc(CC(=O)N2CC[C@@H]3CN(C)S(=O)(=O)[C@@H]3CC2)c1`, the cytotoxicity at 70.5 h is -3.48%. As to `Cc1cccc(CN2CC[C@@H]3O[C@@H](C(=O)N4CCN(C)CC4)C[C@@H]32)n1`, the cytotoxicity at 70.5 h is -1.64%.

Turning to `COCCNC(=O)C[C@@H]1COC[C@H]2CN(Cc3cccnc3)C[C@@H]12`, the cytotoxicity at 70.5 h is -0.897%. For the compound `COCCC(=O)N1C[C@H]2CCC[C@@]2(COC)C1`, the cytotoxicity at 70.5 h was -6.36%. On to `Cc1cccc(CN2CC[C@@H]3O[C@@H](C(=O)N4CCN(C)CC4)C[C@@H]32)c1`, for which the cytotoxicity at 70.5 h is -6.66%.

For `CCn1nc(C)cc1C(=O)N1C[C@@H]2C[C@@H](c3noc(C)n3)O[C@@H]2C1`, the cytotoxicity at 70.5 h is -6.34%. The result for `c1c(CN2CCOCC2)nc2n1CCN(C1CCOCC1)C2` reads -1.69%. In the case of `CC(C)CNC(=O)C1=NOC2(CCN(Cc3cccc(C#N)c3)C2)C1` (stereo not given), the cytotoxicity at 70.5 h was -1.8%. As for `c1ccc(C[C@H]2CN(Cc3nccs3)CC[C@H]2OCC2CC2)cc1`, the cytotoxicity at 70.5 h was -11.5%. For `COCCn1c2c(ccc1=O)CC(NS(C)(=O)=O)CC2` (stereo not given), the cytotoxicity at 70.5 h is 16%. As for `CC(C)Nc1nc(N2CCOCC2)nc2c1CN(CC(=O)N(C)C)CC2`, the figure is 26.3%. Consider `O=C(N1CCCC1)N1CCN(CC2CC2)c2ncccc2C1`, for which the cytotoxicity at 70.5 h stood at 6.34%. Regarding `c1ccc(OC[C@H]2CCC[C@]23CN(Cc2nccs2)CCO3)nc1`, the cytotoxicity at 70.5 h was -4.23%. Consider `CC(=O)N1CCn2cc(CNC(=O)c3cccn3C)nc2C1`, for which the cytotoxicity at 70.5 h is -10.7%. In the case of `CCOC[C@@H]1CCC[C@@]12CN(Cc1nccs1)CCO2`, the cytotoxicity at 70.5 h came to 0.476%.

With `COCCC1COC2(CCN(C(=O)c3ccco3)CC2)C1` (stereo not given), the cytotoxicity at 70.5 h was -5.74%. As for `CC(C)Oc1ncnc2c1CCN(C(=O)c1cccn1C)CC2`, the figure is 7.42%; as for `CC(=O)N1CCC2(CCCN(C(=O)c3ccccc3)C2)C1` (stereo not given), 6.68%; as for `O=C(N1CCCC1)N1CCc2ncnc(C3CCOC3)c2CC1` (stereo not given), -9.08%. For `COCCC(=O)N1CCC2(COCc3c(C)nc(NCC4CC4)nc32)C1` (stereo not given), the cytotoxicity at 70.5 h was -4.97%. For the compound `O=C(CC1CC1)N1CCC2(CC1)CN(c1ncccn1)CCO2`, the cytotoxicity at 70.5 h was -7.66%.

Regarding `Cc1ncsc1CN1CC[C@H]2C(=O)N(c3ccccc3)CCO[C@H]2C1`, the cytotoxicity at 70.5 h is -9.01%. Take `CS(=O)(=O)NCc1cn2c(n1)CN(C(=O)c1ccc[nH]1)CC2`: the cytotoxicity at 70.5 h is -9.01%. Regarding `CN(Cc1ccccn1)C1COC2(CCN(Cc3cccnc3)CC2)C1` (stereo not given), the cytotoxicity at 70.5 h was determined as 24.4%. Regarding `COc1ccc(C(=O)N2Cc3c(Cn4ccnc4)nn(C)c3C2)cc1`, the cytotoxicity at 70.5 h is -8.74%. `O=C1[C@@H]2CCN(Cc3ccncc3)C[C@@H]2OCCN1c1ccccc1`: the cytotoxicity at 70.5 h was -8.52%. `Cc1occc1C(=O)N1CCC2(CC1)C(c1cnn(C)c1)CC(=O)N2C` (stereo not given): the cytotoxicity at 70.5 h is 4.52%. For the compound `C[C@H]1C[C@@H]2CCN(Cc3ccccn3)C[C@H]2O1`, the cytotoxicity at 70.5 h was -0.0314%. With `c1cnc(N2CCCC3(CCN(Cc4ccncc4)C3)C2)nc1` (stereo not given), the cytotoxicity at 70.5 h was -13.2%. For the compound `O=C(c1cscn1)N1CCC2(CCN(Cc3nccs3)C2)CC1`, the cytotoxicity at 70.5 h is -12.2%. In the case of `COCCN1CCCCC12CC(=O)N(c1cccc(C#N)c1)C2` (stereo not given), the cytotoxicity at 70.5 h was -4.04%. `Cn1cncc1CN1CCC2(CC1)COCCN(S(C)(=O)=O)C2`: the cytotoxicity at 70.5 h was -8.74%.

As for `CCC(=O)N1CCC2(CC1)C(=O)N(C)CCN2Cc1csc(C)n1`, the cytotoxicity at 70.5 h is -4.08%.

On to `O=C([C@H]1CC[C@@H]2[C@@H](CCN2C2CCCC2)O1)N1CCOCC1`, for which the cytotoxicity at 70.5 h is -12.8%. Take `c1csc(CN2CCn3c(Cn4cncn4)cnc3C2)n1`: the cytotoxicity at 70.5 h was -17.2%.

For `COCCC(=O)N1CC2(CCN(Cc3cccc(Cl)c3)CC2)C1`, the cytotoxicity at 70.5 h is -8.68%. The result for `O=C(N1CCCC1)N1CCO[C@H]2[C@@H](Oc3ccccn3)CC[C@@H]21` reads -6.73%; that for `Cc1ccc(CN2CCCC3(CCN(S(C)(=O)=O)C3)C2)o1` (stereo not given), -10.2%; that for `Cn1nnc2c1CCN(Cc1nccs1)C2COCc1ccccc1` (stereo not given), -2.36%. As to `O=C(C1=CCCC1)N1CCO[C@H]2[C@@H](Oc3ccccn3)CC[C@@H]21`, the cytotoxicity at 70.5 h was -0.715%. Consider `Cn1cc(C[C@H]2[C@H](N3CCOCC3)CCN2C(=O)c2ccco2)cn1`, for which the cytotoxicity at 70.5 h amounted to 5.32%. As for `O=C(c1ccc[nH]1)N1CCn2cc(CN3CCCC3)nc2C1`, the figure is -8.96%; as for `O=C(c1cccnc1)N1CCc2ncnc(C3CCOC3)c2CC1` (stereo not given), -7.71%.

Turning to `Cc1cc(CN2CC[C@H]3C(=O)N(c4ccccc4)CCO[C@H]3C2)no1`, the cytotoxicity at 70.5 h is 23.6%. As to `O=C(c1cccc(Cl)c1)N1CC[C@H]2[C@H]1CCN2CC1CCOCC1`, the cytotoxicity at 70.5 h is -8.99%. Regarding `COc1ccc(CN2CC[C@H]3[C@H]2CCN3C(=O)c2cnn(C)c2)cc1`, the cytotoxicity at 70.5 h was -0.0414%.

For `NC(=O)N1C[C@H]2CN(Cc3nccs3)C[C@H]2C1`, the cytotoxicity at 70.5 h is -18.2%. The result for `O=C1[C@H]2CN(CC3CC3)C[C@H]2CN1Cc1cccc(F)c1` reads -7.25%; that for `CN(C)c1ncnc2c1CCN(CC1CCOC1)CC2` (stereo not given), -14.4%. With `Cn1ccnc1CN1CCC2(CC(=O)N(c3cncnc3)C2)C1` (stereo not given), the cytotoxicity at 70.5 h was -14.3%. With `Cn1cc(C(=O)N2CC[C@@H]3[C@@H]2CCN3Cc2cccc(F)c2)cn1`, the cytotoxicity at 70.5 h was -6.38%. Regarding `CS(=O)(=O)N[C@@H]1CN(C(=O)c2ccccn2)[C@@H]2CCCO[C@@H]21`, the cytotoxicity at 70.5 h was -5.15%.

For `O=C(C[C@@H]1COC[C@H]2CN(C3CCC3)C[C@@H]12)NCc1cccnc1`, the cytotoxicity at 70.5 h was -16.6%. `C[C@H]1CN(c2ccccn2)C[C@@]12CCN(c1cccnc1)C2=O`: the cytotoxicity at 70.5 h was -2.67%. As for `CC(C)N1CC[C@H]2[C@H](C[C@@H](Cn3cncn3)N2c2nccs2)C1`, the figure is -6.46%; as for `c1ccc(CN2CC[C@@H]3O[C@@H](COCC4CCOCC4)CC[C@@H]32)nc1`, -14.4%; as for `O=C(NC1CCCC1)[C@@H]1CN(Cc2nccs2)C[C@H]2OCC[C@H]21`, 33.7%. `Fc1cnc(N2CCCC3(CN(Cc4ccncc4)CCO3)C2)nc1` (stereo not given): the cytotoxicity at 70.5 h was -6.32%.

As to `O=C(NC[C@]12COC[C@H]1CN(Cc1ccncc1)C2)c1ccco1`, the cytotoxicity at 70.5 h was -10.9%. `Cn1cc(N2CCC3(CCN(Cc4cccnc4)C3)C2=O)cn1` (stereo not given): the cytotoxicity at 70.5 h was -17.1%. As to `Cc1nc(CN2CCC3(CC2)C(=O)N(C)CCN3C)cs1`, the cytotoxicity at 70.5 h is -4.7%.

Take `Fc1cccc(N2CCCC3(CN(Cc4ccncc4)CCO3)C2)c1` (stereo not given): the cytotoxicity at 70.5 h is -4.69%.
